Source: article PMC8876135, “The Catestatin-Derived Peptides Are New Actors to Fight the Development of Oral Candidosis” (International Journal of Molecular Sciences, 2022)
Converted amounts (≈) assume the structure as drawn. Non-standard residues stand in square brackets, D forms with d. Residues, ends and D or L forms follow the SMILES beside them. *: point of attachment. Palmitoyl = CCCCCCCCCCCCCCCC(=O)*

Columns and labels:
[1] = system: Candida albicans “S” (ATCC 10231); format: cell-based; conditions: ATCC 10231, 24 h, pH 5.6
Method: (§1) Strains of Candida albicans, Candida tropicalis and Candida glabrata, frequently found in cases of oral candidosis, were tested for L-bCtl and D-bCtl antimicrobial activity. The sensitive strain of C. albicans (ATCC 10231^TM) was provided by ATCC (Manassas, VA, USA). The resistant strain of C. albicans, the sensitive and resistant strains of C. tropicalis as well as the sensitive and resistant strains of C. glabrata were kindly provided by Dr Valérie Letscher-Bru (Laboratory of Parasitolology and Medical Mycology, Strasbourg, France).
(§2) Each Candida strain was first plated on agar plates and cultured for 24 h at 37 °C. After incubation, one colony per isolate was transferred into 5 mL of Sabouraud medium pH 5.6 (Sigma-Aldrich, Le Pont-de-Claix, France) supplemented with tetracycline (10 μg/mL) and cefotaxime (10 μg/mL) and incubated aerobically under agitation at 37 °C for 24 h. The resulting cultures were resuspended at an absorbance of 0.001 (OD600nm = 0.001) in Sabouraud medium. The OD600nm was evaluated with a spectrophotometer (BIO-RAD Smatspec^TM plus, Schiltigheim, France). In preliminary experiments, we tested RPMI-1640 culture and Sabouraud media. Similar data were obtained but the experiments were more reproducible with Sabouraud than with RPMI1640. Therefore, Sabouraud medium was used in the present study.
(§3) The yeasts (OD600nm = 0.001) were then plated on 96-well microplates and treated with different concentrations of the peptides of interest. After 24 h incubation at 37 °C under agitation, yeast growth was assessed by optical density (OD600nm) using a microplate spectrophotometer (Multiscan EX, Thermo Fisher Scientific, Waltham, MA, USA). All tests were performed in triplicate. The MIC (minimal inhibitory concentration), defined as the lowest concentration of drug able to inhibit 100% of the growth of a pathogen, was determined for the different peptides against all previously described Candida strains, using a modified Gompertz model.

[2] = system: Candida albicans “R”; format: cell-based; conditions: 24 h, pH 5.6
Method: as §1, §2, §3

SMILES | MIC C. albicans “S” [1] [µg/mL] | MIC C. albicans “R” [2] [µg/mL]
CCCCCCCCCCCCCCCC(=O)N[C@@H](CO)C(=O)N[C@@H](CO)C(=O)N[C@@H](CCSC)C(=O)N[C@@H](CCCCN)C(=O)N[C@@H](CC(C)C)C(=O)N[C@@H](CO)C(=O)N[C@@H](Cc1ccccc1)C(=O)N[C@@H](CCCNC(=N)N)C(=O)N[C@@H](C)C(=O)N[C@@H](CCCNC(=N)N)C(=O)NCC(=O)N[C@@H](Cc1ccc(O)cc1)C(=O)NCC(=O)N[C@@H](Cc1ccccc1)C(=O)N[C@@H](CCCNC(=N)N)C(=O)O [Peptide P13] (Palmitoyl-SSMKLSFRARGYGFR-OH; C-terminus assumed) | >100 | >100
CSCC[C@H](NC(=O)[C@H](CO)NC(=O)[C@@H](N)CCCNC(=N)N)C(=O)N[C@@H](CCCNC(=N)N)C(=O)N[C@@H](CC(C)C)C(=O)N[C@@H](CO)C(=O)N[C@@H](Cc1ccccc1)C(=O)N[C@@H](CCCNC(=N)N)C(=O)O [Peptide P2] (H-RSMRLSFR-OH) | 50 (≈ 47.5 µM) | 100 (≈ 95 µM)
CC(=O)N[C@@H](CC(C)C)C(=O)N[C@@H](CO)C(=O)N[C@@H](Cc1ccccc1)C(=O)N[C@@H](CCCNC(=N)N)C(=O)O [Peptide P10] (Ac-LSFR-OH) | >100 | >100
CSCC[C@H](NC(=O)[C@H](CO)NC(=O)[C@@H](N)CO)C(=O)N[C@@H](CCCCN)C(=O)N[C@@H](CC(C)C)C(=O)N[C@@H](CO)C(=O)N[C@@H](Cc1ccccc1)C(=O)N[C@@H](CCCNC(=N)N)C(=O)O [Peptide P14] (H-SSMKLSFR-OH) | >100 | >100
CC(C)C[C@H](N)C(=O)N[C@@H](CO)C(=O)N[C@@H](Cc1ccccc1)C(=O)N[C@@H](CCCNC(=N)N)C(=O)O [Peptide P8] (H-LSFR-OH) | >100 | >100
CCCCCCCCCCCCCCCC(=O)N[C@@H](CCSC)C(=O)N[C@@H](CCCCN)C(=O)N[C@@H](CC(C)C)C(=O)N[C@@H](CO)C(=O)N[C@@H](Cc1ccccc1)C(=O)N[C@@H](CCCNC(=N)N)C(=O)O [Peptide P19] (Palmitoyl-MKLSFR-OH; C-terminus assumed) | >100 | >100
CC(=O)N[C@@H](CC(C)C)C(=O)N[C@@H](CO)C(=O)N[C@@H](Cc1ccccc1)C(=O)N[C@@H](CCCNC(=N)N)C(=O)N[C@@H](C)C(=O)N[C@@H](CCCNC(=N)N)C(=O)O [Peptide P7] (Ac-LSFRAR-OH) | >100 | >100
CSCC[C@H](NC(=O)[C@H](CO)NC(=O)[C@H](CO)NC(C)=O)C(=O)N[C@@H](CCCCN)C(=O)N[C@@H](CC(C)C)C(=O)N[C@@H](CO)C(=O)N[C@@H](Cc1ccccc1)C(=O)N[C@@H](CCCNC(=N)N)C(=O)O [Peptide P15] (Ac-SSMKLSFR-OH) | >100 | >100
CSCC[C@H](NC(=O)[C@H](CO)NC(=O)[C@H](CO)NC(C)=O)C(=O)N[C@@H](CCCCN)C(=O)N[C@@H](CC(C)C)C(=O)N[C@@H](CO)C(=O)N[C@@H](Cc1ccccc1)C(=O)N[C@@H](CCCNC(=N)N)C(=O)N[C@@H](C)C(=O)N[C@@H](CCCNC(=N)N)C(=O)NCC(=O)N[C@@H](Cc1ccc(O)cc1)C(=O)NCC(=O)N[C@@H](Cc1ccccc1)C(=O)N[C@@H](CCCNC(=N)N)C(=O)O [Peptide P12] (Ac-SSMKLSFRARGYGFR-OH; C-terminus assumed) | >100 | >100
CC(=O)N[C@@H](CCCCN)C(=O)N[C@@H](CC(C)C)C(=O)N[C@@H](CO)C(=O)N[C@@H](Cc1ccccc1)C(=O)N[C@@H](CCCNC(=N)N)C(=O)N[C@@H](C)C(=O)O [Peptide P17] (Ac-KLSFRA-OH) | >100 | >100
CSCC[C@H](NC(=O)[C@H](CO)NC(=O)[C@@H](N)CO)C(=O)N[C@@H](CCCCN)C(=O)N[C@@H](CC(C)C)C(=O)N[C@@H](CO)C(=O)N[C@@H](Cc1ccccc1)C(=O)N[C@@H](CCCNC(=N)N)C(=O)N[C@@H](C)C(=O)N[C@@H](CCCNC(=N)N)C(=O)N[C@@H](C)C(=O)N[C@@H](Cc1ccc(O)cc1)C(=O)NCC(=O)N[C@@H](Cc1ccccc1)C(=O)N[C@@H](CCCNC(=N)N)C(=O)O [hCtl] (H-SSMKLSFRARAYGFR-OH) | 50 (≈ 28.1 µM) | 50 (≈ 28.1 µM)
CSCC[C@H](NC(=O)[C@H](CO)NC(=O)[C@H](CCCNC(=N)N)NC(C)=O)C(=O)N[C@@H](CCCNC(=N)N)C(=O)N[C@@H](CC(C)C)C(=O)N[C@@H](CO)C(=O)N[C@@H](Cc1ccccc1)C(=O)N[C@@H](CCCNC(=N)N)C(=O)O [Peptide P3] (Ac-RSMRLSFR-OH) | >100 | >100
CC(C)C[C@@H](N)C(=O)N[C@H](CO)C(=O)N[C@H](Cc1ccccc1)C(=O)N[C@H](CCCNC(=N)N)C(=O)O [Peptide P9] (H-[dL][dS][dF][dR]-OH; N-terminus and C-terminus assumed) | >100 | >100
CCCCCCCCCCCCCCCC(=O)N[C@@H](CCCNC(=N)N)C(=O)N[C@@H](CO)C(=O)N[C@@H](CCSC)C(=O)N[C@@H](CCCNC(=N)N)C(=O)N[C@@H](CC(C)C)C(=O)N[C@@H](CO)C(=O)N[C@@H](Cc1ccccc1)C(=O)N[C@@H](CCCNC(=N)N)C(=O)O [Peptide P4] (Palmitoyl-RSMRLSFR-OH; C-terminus assumed) | >100 | >100
CC(C)C[C@H](NC(=O)[C@@H](N)CCCNC(=N)N)C(=O)N[C@@H](CO)C(=O)N[C@@H](Cc1ccccc1)C(=O)N[C@@H](CCCNC(=N)N)C(=O)N[C@@H](C)C(=O)N[C@@H](Cc1c[nH]c2ccccc12)C(=O)O [Peptide P5] (H-RLSFRAW-OH) | >100 | >100
CC(C)C[C@@H](NC(=O)[C@H](N)CCCNC(=N)N)C(=O)N[C@H](CO)C(=O)N[C@H](Cc1ccccc1)C(=O)N[C@H](CCCNC(=N)N)C(=O)N[C@H](C)C(=O)N[C@H](Cc1c[nH]c2ccccc12)C(=O)O [Peptide P6] (H-[dR][dL][dS][dF][dR][dA][dW]-OH; N-terminus and C-terminus assumed) | >100 | >100
CSCC[C@H](N)C(=O)N[C@@H](CCCCN)C(=O)N[C@@H](CC(C)C)C(=O)N[C@@H](CO)C(=O)N[C@@H](Cc1ccccc1)C(=O)N[C@@H](CCCNC(=N)N)C(=O)O [Peptide P18] (H-MKLSFR-OH) | >100 | >100
CCCCCCCCCCCCCCCC(=O)N[C@@H](CC(C)C)C(=O)N[C@@H](CO)C(=O)N[C@@H](Cc1ccccc1)C(=O)N[C@@H](CCCNC(=N)N)C(=O)O [Peptide P11] (Palmitoyl-LSFR-OH; C-terminus assumed) | >100 | >100
CCCCCCCCCCCCCCCC(=O)N[C@@H](CO)C(=O)N[C@@H](CO)C(=O)N[C@@H](CCSC)C(=O)N[C@@H](CCCCN)C(=O)N[C@@H](CC(C)C)C(=O)N[C@@H](CO)C(=O)N[C@@H](Cc1ccccc1)C(=O)N[C@@H](CCCNC(=N)N)C(=O)O [Peptide P16] (Palmitoyl-SSMKLSFR-OH; C-terminus assumed) | >100 | >100
